From US20240058283A1, “THE MODE OF ACTION OF N-MeDCPA ON TRPC CHANNELS” (West Virginia University Board of Governors on Behalf of …, priority 2022, published 2024)

Molecular target: T1, TRPC7 (Homo sapiens, UniProt Q9HCX4)
T1 construct: expressed in transfected cells; host or cells: HEK293 (transient transfection)
T1 sequence (Q9HCX4 1-862): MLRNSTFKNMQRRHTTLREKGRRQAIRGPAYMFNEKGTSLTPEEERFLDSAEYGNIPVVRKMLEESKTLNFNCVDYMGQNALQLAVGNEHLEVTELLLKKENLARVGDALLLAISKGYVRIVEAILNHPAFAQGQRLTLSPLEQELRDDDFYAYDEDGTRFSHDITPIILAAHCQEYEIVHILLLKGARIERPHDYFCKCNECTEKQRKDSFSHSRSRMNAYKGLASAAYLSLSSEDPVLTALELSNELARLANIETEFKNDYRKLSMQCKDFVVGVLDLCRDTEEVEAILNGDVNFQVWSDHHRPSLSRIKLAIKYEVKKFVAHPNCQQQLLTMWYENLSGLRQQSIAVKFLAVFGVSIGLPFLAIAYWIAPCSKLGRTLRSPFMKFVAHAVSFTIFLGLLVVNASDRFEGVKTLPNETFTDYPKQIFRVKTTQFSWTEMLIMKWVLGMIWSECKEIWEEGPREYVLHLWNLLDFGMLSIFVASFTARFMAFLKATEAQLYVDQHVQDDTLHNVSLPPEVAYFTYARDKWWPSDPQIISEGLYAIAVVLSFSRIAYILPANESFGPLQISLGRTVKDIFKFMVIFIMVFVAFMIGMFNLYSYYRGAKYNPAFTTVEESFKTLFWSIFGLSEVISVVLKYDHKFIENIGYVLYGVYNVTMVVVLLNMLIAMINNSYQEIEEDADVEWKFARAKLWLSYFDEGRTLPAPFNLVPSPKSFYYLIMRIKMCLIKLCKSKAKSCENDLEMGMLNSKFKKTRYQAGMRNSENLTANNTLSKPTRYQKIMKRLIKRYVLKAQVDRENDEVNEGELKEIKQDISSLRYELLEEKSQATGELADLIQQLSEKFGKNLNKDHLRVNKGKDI
Experiment: Carbachol (Cch)-induced Sr2+ entry in Fura2-loaded HEK293 cells overexpressing TRPC7
Type: cell-based
Settings: versus DAG-mediated activation, FIG. 2D, E
Source text: Inhibition of GPCR-mediated TRPC activation. Since TRPC4 and TRPC5 are not activated by DAG, we utilized carbachol (Cch)-induced Sr^2+ entry to determine their sensitivity to ELP-004. Since Cch drives ER Ca^2+ release, Cch-induced Ca^2+ entry includes both store-operated and TRPC-mediated components. To specifically measure ion entry through TRPC channels, we took advantage of the lack of ion selectivity of TRPC channel and substituted Sr^2+ for Ca^2+ as previously described^7. As expected, Cch stimulated rapid ER Ca^2+ release immediately upon addition in both TRPC4- and TRPC5-expressing cells (FIG. 2A,B). The subsequent addition of Sr^2+ (3 mM) lead to a significant increase in Fura ratio with a substantially larger response in TRPC5-expressing than TRPC4-expressing cells. […] Therefore, we assessed inhibition of TRPC7 by ELP-004 using the Cch Sr^2+ assay (FIG. 2D, E). […]
TRPC activity assay—Cells grown on glass coverslips were incubated in a cation-safe buffer (107 mM NaCl, 7.2 mM KCl, 1.2 mM MgCl2, 11.5 mM Glucose, 20 mM HEPES-NaOH, 1 mM CaCl2), pH 7.2) and loaded with Fura2-acetoxymethylester (Fura2-AM; 2 μM) for 30 min at 24° C. as previously described^10,11. […] Ca^2+/Sr^2+ measurements were taken using a Leica DMI 6000B fluorescence microscope controlled by Slidebook software (Intelligent Imaging Innovations, Denver, CO). […]

CCC(=O)N(C)c1ccc(Cl)c(Cl)c1 [ELP-004, N-(3,4-dichlorophenyl)-N-methylpropanamide]
increase in sensitivity to ELP-004 in the Cch Sr2+ assay: 3 order of magnitude
